Positions count from the first letter of the chain named.
Legend:
Type in all cases: biochemical
[1] = target: T1, PPIP5K1 (Homo sapiens, UniProt Q6PFW1); experiment: kinase assay of purified recombinant enzyme with […]-[3H]InsP7, HPLC, first-order conditions
T1 construct: full-length human PPIP5K1
T1 sequence (Q6PFW1 1-1433): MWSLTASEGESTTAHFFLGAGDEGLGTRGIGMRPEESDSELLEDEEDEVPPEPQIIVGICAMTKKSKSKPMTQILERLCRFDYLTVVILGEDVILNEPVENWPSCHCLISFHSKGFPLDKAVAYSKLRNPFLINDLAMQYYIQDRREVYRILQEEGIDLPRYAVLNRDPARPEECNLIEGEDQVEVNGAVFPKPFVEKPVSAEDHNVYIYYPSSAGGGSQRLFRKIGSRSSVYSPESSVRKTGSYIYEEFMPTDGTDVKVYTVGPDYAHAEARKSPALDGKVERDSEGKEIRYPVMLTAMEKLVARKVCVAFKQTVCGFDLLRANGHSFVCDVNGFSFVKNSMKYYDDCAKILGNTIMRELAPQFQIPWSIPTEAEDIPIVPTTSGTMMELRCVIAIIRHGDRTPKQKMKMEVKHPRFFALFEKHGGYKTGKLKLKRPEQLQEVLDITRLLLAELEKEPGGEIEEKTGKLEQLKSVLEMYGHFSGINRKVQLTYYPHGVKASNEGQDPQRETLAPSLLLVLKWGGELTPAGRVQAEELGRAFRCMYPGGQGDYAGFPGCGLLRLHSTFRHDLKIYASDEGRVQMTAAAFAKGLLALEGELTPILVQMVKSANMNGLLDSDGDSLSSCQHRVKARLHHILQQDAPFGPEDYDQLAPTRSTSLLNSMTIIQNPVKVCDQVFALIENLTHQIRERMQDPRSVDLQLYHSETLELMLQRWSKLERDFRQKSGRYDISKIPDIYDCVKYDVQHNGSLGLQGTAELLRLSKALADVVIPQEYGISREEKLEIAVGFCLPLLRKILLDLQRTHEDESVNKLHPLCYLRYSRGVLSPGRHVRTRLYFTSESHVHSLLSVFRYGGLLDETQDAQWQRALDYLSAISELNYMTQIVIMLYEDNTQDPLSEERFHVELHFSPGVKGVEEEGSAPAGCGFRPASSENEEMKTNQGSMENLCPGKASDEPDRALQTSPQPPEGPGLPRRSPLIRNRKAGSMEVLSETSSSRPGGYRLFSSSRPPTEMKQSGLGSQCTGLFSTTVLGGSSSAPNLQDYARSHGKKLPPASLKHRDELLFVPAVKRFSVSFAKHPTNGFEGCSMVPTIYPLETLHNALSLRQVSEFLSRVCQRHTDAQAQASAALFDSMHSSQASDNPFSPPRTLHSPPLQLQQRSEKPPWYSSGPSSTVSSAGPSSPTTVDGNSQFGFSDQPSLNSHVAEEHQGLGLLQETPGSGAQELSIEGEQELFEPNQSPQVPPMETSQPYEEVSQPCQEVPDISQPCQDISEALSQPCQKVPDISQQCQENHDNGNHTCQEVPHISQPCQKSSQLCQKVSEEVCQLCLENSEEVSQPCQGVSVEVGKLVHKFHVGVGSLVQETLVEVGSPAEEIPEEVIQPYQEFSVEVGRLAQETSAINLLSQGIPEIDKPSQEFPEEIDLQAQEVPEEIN

[2] = target: T2, PPIP5K1 (Homo sapiens, UniProt Q6PFW1, R399A); experiment: kinase assay of purified phosphatase-compromised mutant, […] h, HPLC
T2 construct: full-length human PPIP5K1
T2 sequence (Q6PFW1 1-1433 R399A): T1 sequence (Q6PFW1 1-1433) with R399A

[3] = target: T1, PPIP5K1; experiment: InsP8 phosphatase assay with [3H]InsP8, HPLC, dose-response
[4] = target: T1, PPIP5K1; experiment: phosphatase assay of purified recombinant enzyme, […] InsP8 with [3H]InsP8, HPLC

Row | IC50 [3] | SMILES | also measured
1 | ~25 µM | CCCCCCCC(=O)OC[C@H](COP(=O)(O)O[C@H]1[C@H](O)[C@@H](O)[C@H](OP(=O)(O)O)[C@@H](OP(=O)(O)O)[C@H]1O)OC(=O)CCCCCCC [C8-PtdIns(3,4)P2] | –
2 | ~35 µM | CCCCCCCC(=O)OC[C@H](COP(=O)(O)O[C@H]1[C@H](O)[C@@H](OP(=O)(O)O)[C@H](OP(=O)(O)O)[C@@H](OP(=O)(O)O)[C@H]1O)OC(=O)CCCCCCC [C8-PtdIns(3,4,5)P3] | –
3 | ~40 µM | CCCCCCCC(=O)OC[C@H](COP(=O)(O)O[C@@H]1[C@H](O)[C@H](O)[C@@H](OP(=O)(O)O)[C@H](OP(=O)(O)O)[C@H]1O)OC(=O)CCCCCCC [C8-PtdIns(4,5)P2] | –

Further lines, the molecule ahead of its results:

Row | SMILES | IC50 [3] | also measured
4 | O=P(O)(O)O[C@H]1[C@@H](OP(=O)(O)O)[C@H](OP(=O)(O)O)[C@@H](OP(=O)(O)OP(=O)(O)O)[C@H](OP(=O)(O)O)[C@H]1OP(=O)(O)O [5-InsP7] | – | kinase assay of purified recombinant enzyme with 5-[3H]InsP7, HPLC, first-order [1]: 0.07 min⁻¹; % / ng protein [2]: 6.9 ± 0.01 % / ng protein
5 | O=P(O)(O)O[C@@H]1[C@@H](OP(=O)(O)O)[C@H](OP(=O)(O)OP(=O)(O)O)[C@@H](OP(=O)(O)O)[C@H](OP(=O)(O)OP(=O)(O)O)[C@@H]1OP(=O)(O)O [InsP8] | – | phosphatase assay of purified recombinant enzyme, 1 μM InsP8 with [3H]InsP8, HPL [4]: 7 ± 1 nmol/mg protein/min
